SMILES strings stand for the structures. pIC50: −log10 of the molar value. Bounds are passed on as bounds.

human fatty acid synthase FASN, sequence (P49327 whole entry): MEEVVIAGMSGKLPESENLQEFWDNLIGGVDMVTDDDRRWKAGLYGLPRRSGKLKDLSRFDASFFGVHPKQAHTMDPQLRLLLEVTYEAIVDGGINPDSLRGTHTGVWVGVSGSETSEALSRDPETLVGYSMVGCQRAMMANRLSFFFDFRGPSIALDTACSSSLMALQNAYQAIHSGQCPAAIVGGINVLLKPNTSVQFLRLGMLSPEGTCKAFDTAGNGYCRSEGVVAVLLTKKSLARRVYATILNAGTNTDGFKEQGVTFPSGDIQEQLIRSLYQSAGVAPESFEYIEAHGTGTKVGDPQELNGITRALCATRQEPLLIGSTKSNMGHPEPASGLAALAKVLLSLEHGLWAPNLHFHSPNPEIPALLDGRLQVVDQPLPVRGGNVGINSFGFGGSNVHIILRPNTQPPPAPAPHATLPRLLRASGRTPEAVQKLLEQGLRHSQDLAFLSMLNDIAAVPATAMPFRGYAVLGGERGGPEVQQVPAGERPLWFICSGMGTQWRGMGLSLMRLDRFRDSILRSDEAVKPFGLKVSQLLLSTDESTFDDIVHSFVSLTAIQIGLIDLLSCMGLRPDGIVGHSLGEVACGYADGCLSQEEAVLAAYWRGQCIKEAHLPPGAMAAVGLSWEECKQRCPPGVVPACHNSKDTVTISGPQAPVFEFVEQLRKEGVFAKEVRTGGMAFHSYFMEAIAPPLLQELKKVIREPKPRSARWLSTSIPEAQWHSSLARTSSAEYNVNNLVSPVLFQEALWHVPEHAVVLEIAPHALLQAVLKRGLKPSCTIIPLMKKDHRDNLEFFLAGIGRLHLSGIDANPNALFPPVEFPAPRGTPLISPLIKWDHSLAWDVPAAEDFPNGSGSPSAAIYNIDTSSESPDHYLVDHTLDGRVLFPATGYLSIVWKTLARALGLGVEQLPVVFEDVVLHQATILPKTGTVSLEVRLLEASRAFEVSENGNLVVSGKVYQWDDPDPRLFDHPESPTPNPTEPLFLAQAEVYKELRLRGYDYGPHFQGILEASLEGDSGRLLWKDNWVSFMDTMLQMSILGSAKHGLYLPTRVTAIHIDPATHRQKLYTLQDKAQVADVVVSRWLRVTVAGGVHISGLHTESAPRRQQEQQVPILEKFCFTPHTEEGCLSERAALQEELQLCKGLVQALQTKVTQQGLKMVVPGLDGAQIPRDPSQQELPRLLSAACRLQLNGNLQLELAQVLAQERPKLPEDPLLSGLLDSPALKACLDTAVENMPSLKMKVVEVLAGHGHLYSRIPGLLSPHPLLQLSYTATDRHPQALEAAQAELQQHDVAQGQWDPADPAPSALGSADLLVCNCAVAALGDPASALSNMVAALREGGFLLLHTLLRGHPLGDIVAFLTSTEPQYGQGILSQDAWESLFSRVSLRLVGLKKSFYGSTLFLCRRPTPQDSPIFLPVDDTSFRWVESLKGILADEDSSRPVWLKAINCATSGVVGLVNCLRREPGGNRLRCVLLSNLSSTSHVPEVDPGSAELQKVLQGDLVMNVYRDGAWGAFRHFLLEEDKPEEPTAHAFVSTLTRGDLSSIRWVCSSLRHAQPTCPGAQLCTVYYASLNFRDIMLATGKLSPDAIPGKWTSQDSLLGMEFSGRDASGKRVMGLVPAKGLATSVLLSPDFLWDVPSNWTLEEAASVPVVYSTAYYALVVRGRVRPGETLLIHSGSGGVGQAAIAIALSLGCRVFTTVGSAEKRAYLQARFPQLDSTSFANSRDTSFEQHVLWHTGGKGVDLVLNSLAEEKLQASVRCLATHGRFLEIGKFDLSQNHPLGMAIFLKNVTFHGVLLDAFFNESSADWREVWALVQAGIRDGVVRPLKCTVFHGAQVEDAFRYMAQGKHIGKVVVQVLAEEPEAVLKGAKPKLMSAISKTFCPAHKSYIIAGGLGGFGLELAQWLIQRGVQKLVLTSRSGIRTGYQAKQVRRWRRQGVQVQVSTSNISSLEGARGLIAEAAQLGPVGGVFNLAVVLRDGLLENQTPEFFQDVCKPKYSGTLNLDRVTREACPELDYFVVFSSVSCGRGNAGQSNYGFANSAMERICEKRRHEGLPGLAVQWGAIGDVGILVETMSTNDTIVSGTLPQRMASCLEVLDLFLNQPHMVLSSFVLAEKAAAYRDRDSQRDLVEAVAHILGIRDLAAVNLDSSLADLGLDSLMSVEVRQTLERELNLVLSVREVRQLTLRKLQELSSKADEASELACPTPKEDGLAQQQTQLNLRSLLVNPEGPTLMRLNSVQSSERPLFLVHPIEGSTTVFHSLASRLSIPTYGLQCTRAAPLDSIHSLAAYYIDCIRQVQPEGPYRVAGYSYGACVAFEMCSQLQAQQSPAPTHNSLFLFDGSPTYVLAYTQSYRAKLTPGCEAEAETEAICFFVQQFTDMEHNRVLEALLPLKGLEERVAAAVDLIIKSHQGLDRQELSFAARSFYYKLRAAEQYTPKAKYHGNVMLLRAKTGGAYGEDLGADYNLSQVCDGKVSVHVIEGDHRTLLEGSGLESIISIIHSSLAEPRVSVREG

In this assay the target is human fatty acid synthase FASN (Homo sapiens (Human), UniProt P49327). Nature of the assay: Biochemical activity testing of human fatty acid synthase FASN (NADPH fluorescence intensity enzyme assay). The settings on record: human recombinant full-length fatty acid synthase. An excerpt:
Biochemical activity testing of human fatty acid synthase FASN
Fatty acid synthase FASN is a multifunctional enzyme with seven catalytic activities thereby synthesising long chain fatty acids especially palmitoyl-CoA in the presence of co-factor NADPH starting from the substrates acetyl-CoA and malonyl-CoA. The reductive synthesis is realized by the oxidation of NADPH to NADP. Since NADPH has a high fluorescence intensity quantum yield compared to NADP with excitation at 340 nm and emission at 460 nm, the reaction can be monitored via the decrease in fluorescence intensity. The biochemical FASN activity testing was performed as 384 well two-time-point kinetic fluorescence intensity assay format in Greiner low volume medium binding 384-well black microtiter plates in a total assay volume of 8 μl and was used for high throughput screen. In each well 3 μl 40 nM human recombinant full-length fatty acid synthase (produced in-house in SF9 cells) were dispensed in the following assay buffer: 50 mM potassium phosphate buffer pH 7.0, 0.005% (w/v) BSA, 2 mM Glutathione, 0.02% Tween-20. Then 2 μl of 200 μM NADPH in assay buffer were added, followed by the addition of the test compounds in 10 dilution concentrations starting with 30 μM (final concentration) to get a final DMSO content of 1% (v/v). The mixture was incubated for at least 15 min at room temperature. After the pre-incubation the enzymatic reaction was started by the addition of 2 μl substrate solution (80 μM acetyl-CoA, 240 μM malonyl-CoA). A first fluorescence intensity measurement (time point one) was performed with an Envision multimode reader (Perkin Elmer LAS Germany GmbH) at excitation wavelength 340 nm (lamp mode) and emission wavelength 460 nm. The reaction was incubated for 30 minutes at room temperature. After this the fluorescence intensity was measured again in the Envision using the same parameters as described above (second time point measurement). The data were analysed by subtracting the first time point measurement value from the second time point measurement value (after the enzymatic reaction). The differences of the emission signals were determined. These reflect directly the conversion rate of NADPH. The full value used was the inhibitor-free reaction. A pharmacological zero value was used like GSK837149A (Sigma-Aldrich) in a final concentration of 5-10 μM. The inhibitory values (IC50) were determined using either the program Symyx Assay Explorer® or Condosseo® from GeneData.
For `CCC(=O)N[C@H]1CC[C@@H](N(C)C(=O)c2ccc(-c3ccc4c(c3)OCO4)cc2)C1` [Compound A58, 4-benzo[1,3]dioxol-5-yl-N-methyl-N-((1R,3S)-3-propionylamino-cyclopentyl)-benzamide], the pIC50 was more than 6.52. `CCC(=O)N[C@H]1CC[C@@H](N(C)C(=O)c2ccc(-c3ccc4ncsc4c3)cc2)C1` [Compound A59, 4-benzothiazol-6-yl-N-methyl-N-((1R,3S)-3-propionylamino-cyclopentyl)-benzamide]: the pIC50 was more than 6.52. On to `CCC(=O)N[C@H]1CC[C@@H](N(C)C(=O)c2ccc(-c3ccc4c(c3)NC(=O)C4)cc2)C1` [Compound A60, N-methyl-4-(2-oxo-2,3-dihydro-1H-indol-6-yl)-N-((1R,3S)-3-propionylamino-cyclopentyl)-benzamide], for which the pIC50 was more than 6.52. `CCC(=O)N[C@H]1CC[C@@H](N(C)C(=O)c2ccc(-c3cc(F)c(C#N)c(F)c3)cc2)C1` [Compound A61, 4′-cyano-3′,5′-difluoro-biphenyl-4-carboxylic acid methyl-((1R,3S)-3-propionylamino-cyclopentyl)-amide]: the negative logarithm of the IC50 (pIC50) was 4.30 to 5.52. On to `CCC(=O)N[C@H]1CC[C@@H](N(C)C(=O)c2ccc(-c3ccc(OC(F)(F)F)cc3)cc2)C1` [Compound A62, 4′-trifluoromethoxy-biphenyl-4-carboxylic acid methyl-((1R,3S)-3-propionylamino-cyclopentyl)-amide], for which the pIC50 was 5.52 to 6.52. Take `CCC(=O)N[C@H]1CC[C@@H](N(C)C(=O)c2ccc(-c3ccc(F)c(Cl)c3)cc2)C1` [Compound A63, 3′-chloro-4′-fluoro-biphenyl-4-carboxylic acid methyl-((1R,3S)-3-propionylamino-cyclopentyl)-amide]: the pIC50 was more than 6.52. Regarding `CCC(=O)N[C@H]1CC[C@@H](N(C)C(=O)c2ccc(-c3ccc(C(F)(F)F)cc3)cc2)C1` [Compound A64, 4′-trifluoromethyl-biphenyl-4-carboxylic acid methyl-((1R,3S)-3-propionylamino-cyclopentyl)-amide], the pIC50 was more than 6.52.

For the compound `CCC(=O)N[C@H]1CC[C@@H](N(C)C(=O)c2ccc(-c3ccc(OC)cc3C)cc2)C1` [Compound A65, 4′-methoxy-2′-methyl-biphenyl-4-carboxylic acid methyl-((1R,3S)-3-propionylamino-cyclopentyl)-amide], the pIC50 was more than 6.52.

Regarding `CCC(=O)N[C@H]1CC[C@@H](N(C)C(=O)c2ccc(-c3ccc(C)c(F)c3)cc2)C1` [Compound A66, 3′-fluoro-4′-methyl-biphenyl-4-carboxylic acid methyl-((1R,3S)-3-propionylamino-cyclopentyl)-amide], the pIC50 is more than 6.52. Take `CCC(=O)N[C@H]1CC[C@@H](N(C)C(=O)c2ccc(-c3ccc4cc[nH]c4c3)cc2)C1` [Compound A67, 4-(1H-indol-6-yl)-N-methyl-N-((1R,3S)-3-propionylamino-cyclopentyl)-benzamide]: the pIC50 is more than 6.52. The same measure for `CCC(=O)N[C@H]1CC[C@@H](N(C)C(=O)c2ccc(-c3ccc(-n4cccn4)cc3)cc2)C1` [Compound A68, 4′-pyrazol-1-yl-biphenyl-4-carboxylic acid methyl-((1R,3S)-3-propionylamino-cyclopentyl)-amide]: more than 6.52; for `CCC(=O)N[C@H]1CC[C@@H](N(C)C(=O)c2ccc(-c3ccc(C(=O)OC)c(F)c3)cc2)C1` [Compound A69, 3-fluoro-4′-[methyl-((1R,3S)-3-propionylamino-cyclopentyl)-carbamoyl]-biphenyl-4-carboxylic acid methyl ester]: more than 6.52. The value for `CCC(=O)N[C@H]1CC[C@@H](N(C)C(=O)c2ccc(-c3ccc(OCC4CC4)cc3)cc2)C1` [Compound A70, 4′-cyclopropylmethoxy-biphenyl-4-carboxylic acid methyl-((1R,3S)-3-propionylamino-cyclopentyl)-amide] was more than 6.52. The same measure for `CCC(=O)N[C@H]1CC[C@@H](N(C)C(=O)c2ccc(-c3ccc(C#N)c(F)c3)cc2)C1` [Compound A71, 4′-cyano-3′-fluoro-biphenyl-4-carboxylic acid methyl-((1R,3S)-3-propionylamino-cyclopentyl)-amide]: more than 6.52. Consider `CCC(=O)N[C@H]1CC[C@@H](N(C)C(=O)c2ccc(-c3cnc4ccccc4c3)cc2)C1` [Compound A72, N-methyl-N-((1R,3S)-3-propionylamino-cyclopentyl)-4-quinolin-3-yl-benzamide], for which the pIC50 is more than 6.52.

With `CCC(=O)N[C@H]1CC[C@@H](N(C)C(=O)c2ccc(-c3ccc(C)cc3)cc2)C1` [Compound A73, 4′-methyl-biphenyl-4-carboxylic acid methyl-((1R,3S)-3-propionylamino-cyclopentyl)-amide], the pIC50 is more than 6.52. The value for `CCC(=O)N[C@H]1CC[C@@H](N(C)C(=O)c2ccc(-c3ccc4cnn(C)c4c3)cc2)C1` [Compound A74, N-methyl-4-(1-methyl-1H-indazol-6-yl)-N-((1R,3S)-3-propionylamino-cyclopentyl)-benzamide] was more than 6.52; that for `CCC(=O)N[C@H]1CC[C@@H](N(C)C(=O)c2ccc(-c3ccc4c(cnn4C)c3)cc2)C1` [Compound A75, N-methyl-4-(1-methyl-1H-indazol-5-yl)-N-((1R,3S)-3-propionylamino-cyclopentyl)-benzamide] was more than 6.52.

As for `CCC(=O)N[C@H]1CC[C@@H](N(C)C(=O)c2ccc(-c3ccc4[nH]cnc4c3)cc2)C1` [Compound A76, 4-(1H-benzimidazol-5-yl)-N-methyl-N-((1R,3S)-3-propionylamino-cyclopentyl)-benzamide], the pIC50 was more than 6.52. The same measure for `CCC(=O)N[C@H]1CC[C@@H](N(C)C(=O)c2ccc(-c3ccc(C(=O)NC)cc3)cc2)C1` [Compound A78, biphenyl-4,4′-dicarboxylic acid 4′-methylamide 4-[methyl-((1R,3S)-3-propionylamino-cyclopentyl)-amide]]: more than 6.52. Consider `CCC(=O)N[C@H]1CC[C@@H](N(C)C(=O)c2ccc(-c3ccc4c(ccn4C)c3)cc2)C1` [Compound A80, N-methyl-4-(1-methyl-1H-indol-5-yl)-N-((1R,3S)-3-propionylamino-cyclopentyl)-benzamide], for which the pIC50 was more than 6.52. The value for `CCC(=O)N[C@H]1CC[C@@H](N(C)C(=O)c2ccc(-c3ccc(-c4ccn[nH]4)cc3)cc2)C1` [Compound A81, 4′-(2H-pyrazol-3-yl)-biphenyl-4-carboxylic acid methyl-((1R,3S)-3-propionylamino-cyclopentyl)-amide] was more than 6.52; that for `CCC(=O)N[C@H]1CC[C@@H](N(C)C(=O)c2ccc(-c3ccc(OC)cc3)cc2)C1` [Compound A82, 4′-methoxy-biphenyl-4-carboxylic acid methyl-((1R,3S)-3-propionylamino-cyclopentyl)-amide] was more than 6.52; that for `CCC(=O)N[C@H]1CC[C@@H](N(C)C(=O)c2ccc(-c3ccc(F)cc3F)cc2)C1` [Compound A83, 2′,4′-difluoro-biphenyl-4-carboxylic acid methyl-((1R,3S)-3-propionylamino-cyclopentyl)-amide] was more than 6.52.

For the compound `CCC(=O)N[C@H]1CC[C@@H](N(C)C(=O)c2ccc(-c3ccc4[nH]ncc4c3)cc2)C1` [Compound A84, 4-(1H-indazol-5-yl)-N-methyl-N-((1R,3S)-3-propionylamino-cyclopentyl)-benzamide], the pIC50 was more than 6.52.

`CCC(=O)N[C@H]1CC[C@@H](N(C)C(=O)c2ccc(-c3ccc(OC(F)F)cc3)cc2)C1` [Compound A85, 4′-difluoromethoxy-biphenyl-4-carboxylic acid methyl-((1R,3S)-3-propionylamino-cyclopentyl)-amide]: the pIC50 is more than 6.52. `CCC(=O)N[C@H]1CC[C@@H](N(C)C(=O)c2ccc(-c3ccc(Cl)c(F)c3)cc2)C1` [Compound A86, 4′-chloro-3′-fluoro-biphenyl-4-carboxylic acid methyl-((1R,3S)-3-propionylamino-cyclopentyl)-amide]: the pIC50 is more than 6.52. `CCC(=O)N[C@H]1CC[C@@H](N(C)C(=O)c2ccc(-c3ccc4c(c3)OCCO4)cc2)C1` [Compound A87, 4-(2,3-dihydro-benzo[1,4]dioxin-6-yl)-N-methyl-N-((1R,3S)-3-propionylamino-cyclopentyl)-benzamide]: the pIC50 is more than 6.52. For the compound `CCC(=O)N[C@H]1CC[C@@H](N(C)C(=O)c2ccc(-c3ccc(OC)cc3OC)cc2)C1` [Compound A88, 2′,4′-dimethoxy-biphenyl-4-carboxylic acid methyl-((1R,3S)-3-propionylamino-cyclopentyl)-amide], the pIC50 is more than 6.52.
